Series [1] in a line: Inhibition of gamma-secretase-mediated APP cleavage assessed as amyloid beta40 level after 2 hrs by ELISA. Background: ELISA stands for enzyme-linked immunosorbent assay.
Series [2] can be described thus: Inhibition of gamma-secretase-mediated notch cleavage after 2 hrs by ELISA.
In the next series the target is Gamma-secretase. In words: Inhibition of gamma-secretase-mediated notch cleavage in human SNC cells by ELISA. Type of series: cell-based.
Series [3] is described as follows: (§1) Oxidative metabolic stability in human liver microsomes assessed as compound remaining at 2 uM after 30 mins in presence of 1 mM UDPGA. The format is ADME, Microsome. The conditions noted are these: liver microsomes, read-out: Stability. (Liver microsomes are a subcellular fraction often used to study metabolism.)
For series [4], the system named is Liver microsomes. The series is described as follows: (§2) Oxidative metabolic stability in human liver microsomes assessed as compound remaining at 1 uM after 30 mins in presence of 1 mM NADPH. The format is ADME, Microsome. The conditions noted are these: microsomes, 0.5 h, 1 µM.
The target in series [5] is Gamma-secretase (Homo sapiens) (UniProt Q96BI3+Q9NZ42+Q8WW43+P49768+Q92542+P49810). The series is described as follows: Inhibition of gamma-secretase-mediated APP cleavage in human SNC cells by ELISA. The format is cell-based.
The nature of series [6]: as §2. Type of series: ADME, Microsome. As to conditions: liver microsomes, read-out: Stability.
The next series relates to Mus musculus. The series is described as follows: Neuroprotective activity in wild type FVB mouse brain assessed as reduction of amyloid beta 40 level at 1 mg/kg, po after 3 hrs. The format is functional. Set-up: scale not given: the % may be the effect or the level left.
The test system of series [7] is Liver microsomes. Described as §1. The format is ADME, Microsome. As to conditions: microsomes, 0.5 h, 2 µM.

pIC50: −log10 of the molar value.

Turning to `O=S(=O)(c1ccc(C(F)(F)F)nc1)N1C(C2CC2)c2cn[nH]c2C(F)(F)C12CC2` (racemic) [4'-CYCLOPROPYL-7',7'-DIFLUORO-5'-(6-(TRIFLUOROMETHYL)PYRIDIN-3-YLSULFONYL)-1',4',5',7'-TETRAHYDRO SPIRO[CYCLOPROPANE-1,6'-PYRAZOLO[4,3-C]PYRIDINE] (ENANTIOMERIC MIX)], the pIC50 (usually the IC50 on a negative log10 scale, so that one unit is a factor of ten) in [1] is 9.70; in [2], 8.70; on Gamma-secretase it was 7.30. In addition, in series [3], the remaining at 0.5 h, 2 µM is 89%. Also, the Stability with Liver microsomes [4] came out at 61%.
As to `O=S(=O)(c1ccc(C(F)(F)F)nc1)N1[C@@H](C2CC2)c2cn[nH]c2C(F)(F)[C@H]1C1CC1` (stereo in doubt), the pIC50 in series [1] is 9.22; in series [2] it was 7.64; on Gamma-secretase, 6.86. Further, the ED50 in [5] was determined as 2 nM. Moreover, in series [3], the remaining at 0.5 h, 2 µM turned out to be 75%. In addition, in [6], the remaining at 0.5 h, 1 µM was 80%. For the same molecule, the Activity with Mus musculus came to 20%.
As for `CC(C)(C)C1C(=O)c2[nH]ncc2C(C2CC2)N1S(=O)(=O)c1ccc(C(F)(F)F)nc1` (stereo in doubt; 3u) [6-TERT-BUTYL-4-CYCLOPROPYL-5-(6-(TRIFLUOROMETHYL)PYRIDIN-3-YLSULFONYL)-5,6-DIHYDRO-1H-PYRAZOLO[4,3-C]PYRIDIN-7(4H)-ONE (STRUCTURAL MIX)], the pIC50 in [1] was 8.32; in series [2], 6.97; against Gamma-secretase it was 5.79. Further, in the series with Liver microsomes [4], the Stability turned out to be 12%.
On to `O=C1c2[nH]ncc2C(C2CC2)N(S(=O)(=O)c2ccc(C(F)(F)F)nc2)C12CC2` (stereo in doubt; 16e) [4'-CYCLO PROPYL-5'-(6-(TRIFLUORO METHYL)PYRIDIN-3-YL SULFONYL)-4',5'-DIHYDROSPIRO[CYCLOPROPANE-1,6'-PYRAZOLO[4,3-C]PYRIDIN]-7'(1'H)-ONE (ENANTIOMERIC MIX)], for which the pIC50 in [1] was 5.97; on Gamma-secretase, less than 4.40. In addition, the Stability worked out at 88% in the series with Liver microsomes [7] and 83% in the series with Liver microsomes [4].
Turning to `O=C1c2[nH]ncc2C(C2CC2)N(S(=O)(=O)c2ccc(C(F)(F)F)nc2)C12CC2` (stereo in doubt; 16f) [4'-CYCLO PROPYL-5'-(6-(TRIFLUORO METHYL)PYRIDIN-3-YL SULFONYL)-4',5'-DIHYDROSPIRO[CYCLOPROPANE-1,6'-PYRAZOLO[4,3-C]PYRIDIN]-7'(1'H)-ONE (ENANTIOMERIC MIX)], the pIC50 was 8.85 in [1], 7.82 in series [2] and 6.60 against Gamma-secretase. Further, the Stability with Liver microsomes [7] came to 94%. In addition, the Activity with Mus musculus was 27%.
As for `O=C1c2[nH]ncc2C(C2CC2)N(S(=O)(=O)c2ccc(C(F)(F)F)cn2)C12CC2` (stereo in doubt; 16h) [4'-CYCLOPROPYL-5'-(5-(TRIFLUORO METHYL)PYRIDIN-2-YL SULFONYL)-4',5'-DIHYDROSPIRO[CYCLOPROPANE-1,6'-PYRAZOLO[4,3-C]PYRIDIN]-7'(1'H)-ONE (ENANTIOMERIC MIX)], the values for the pIC50 (in [1]; in [2]; against Gamma-secretase) were 6.05, 5.08 and less than 4.40, respectively. Moreover, the Stability with Liver microsomes [4] came to 80%.
Regarding `O=C1c2[nH]ncc2C(C2CC2)N(S(=O)(=O)c2ccc(C(F)(F)F)cn2)C12CC2` (stereo in doubt; 16i) [4'-CYCLOPROPYL-5'-(5-(TRIFLUORO METHYL)PYRIDIN-2-YL SULFONYL)-4',5'-DIHYDROSPIRO[CYCLOPROPANE-1,6'-PYRAZOLO[4,3-C]PYRIDIN]-7'(1'H)-ONE (ENANTIOMERIC MIX)], the figures for the pIC50 (in [1]; in [2]; against Gamma-secretase) were 8.02, 6.65 and 5.64, respectively. Also, the values for the Stability in the series on Liver microsomes [7] and in the series on Liver microsomes [4] were 96% and 82%, respectively.
With `O=S(=O)(c1ccc(C(F)(F)F)nc1)N1C(C2CC2)c2cn[nH]c2C(F)(F)C12CC2` (stereo in doubt; 17b) [4'-CYCLOPROPYL-7',7'-DIFLUORO-5'-(6-(TRIFLUOROMETHYL)PYRIDIN-3-YLSULFONYL)-1',4',5',7'-TETRAHYDRO SPIRO[CYCLOPROPANE-1,6'-PYRAZOLO[4,3-C]PYRIDINE] (ENANTIOMERIC MIX)], the results for the pIC50 (in series [2]; against Gamma-secretase) were 9.00 and 7.60, respectively. Besides, the Stability in the series with Liver microsomes [7] and in the series on Liver microsomes [4] was 85% in each case.
As to `O=S(=O)(c1ccc(C(F)(F)F)nc1)N1C(C2CC2)c2cn[nH]c2C(F)(F)C12CC2` (stereo in doubt; 17c) [4'-CYCLOPROPYL-7',7'-DIFLUORO-5'-(6-(TRIFLUOROMETHYL)PYRIDIN-3-YLSULFONYL)-1',4',5',7'-TETRAHYDRO SPIRO[CYCLOPROPANE-1,6'-PYRAZOLO[4,3-C]PYRIDINE] (ENANTIOMERIC MIX)], the pIC50 in series [1] is 7.25; in series [2], 6.66; against Gamma-secretase, 5.03. Further, the Stability in the series on Liver microsomes [7] is recorded as 100%; in the series with Liver microsomes [4], 72%.

The values above are taken from ChEMBL document CHEMBL1158636, “Discovery of a novel sulfonamide-pyrazolopiperidine series as potent and efficacious gamma-secretase inhibitors (Part II)” (Bioorg Med Chem Lett, 2010).
